Experimental data: PMC11505029, “Isatin Bis-Imidathiazole Hybrids Identified as FtsZ Inhibitors with On-Target Activity Against Staphylococcus aureus” (Antibiotics, 2024)

Key:
Format in all cases: cell-based
S. aureus MRSA 4 = test: dose-response against clinical isolate MRSA 4; conditions: Staphylococcus aureus, mean [95% confidence interval]
Protocol: (§1) The antimicrobial activity of the compounds was assessed by a well-established broth microdilution procedure in microtiter plates and in compliance with the Clinical and laboratory Standard Institute (CLSI) guidelines (Clinical and Laboratory Standards Institute, Wayne, PA, USA). In short, microbial inocula were prepared at 0.5 McFarland in PBS and, subsequently, bacterial suspensions were diluted 1:200 in Mueller–Hinton broth (Sigma-Aldrich, St. Louis, MO, USA), while fungal inoculum was diluted 1:20 in RPMI-1640 medium (Gibco®, ThermoFisher Scientific Inc., Waltham, MA, USA), containing 2% glucose and 0.3% levo-glutamine buffered to pH 7.0 with 0.165 M 3-(N-morpholino)propanesulfonic acid (MOPS). A total of 100 µL of these microbial suspensions were introduced in a 96-well microplate and incubated with 100 µL of the compounds, two-fold serially diluted in the range of 100–0.19 µM. Positive controls (microbial suspensions in regular media), negative controls (only compounds), and solvent controls (microbial suspensions incubated with DMSO dilutions) were included in the tests. The plate was incubated at 37 °C for 24 h, and subsequently, the optical density at 630 nm (OD630nm) was spectrophotometrically measured. Each experiment was carried out with three technical replicates (i.e., three wells per sample) and repeated at least two times for statistical power. […]

[1] = test system: Vero cell line (ATCC CCL-81); test: cell viability and proliferation assay (WST8/CCK-8); conditions: 100 μM, viability relative to untreated controls, mean ± SD
Protocol: (§2) Vero cell line (ATCC CCL-81) was selected as the model system to assess the effect of the isatin hybrids on normal epithelial cells, and a previously established protocol was used with minor modifications. Briefly, cells were cultured in RPMI-1640 medium supplemented with 10% fetal bovine serum (FBS) (Carlo Erba Reagents, Milan, Italy), 100 U/mL penicillin, and 100 µg/mL streptomycin at 37 °C with 5% CO2. For experiments, cells were seeded into 96-well plates at 10^4 cells/well, and incubated at 37 °C for 24 h. Following washes with PBS, the cell monolayer was incubated with 100 µL of medium containing the 2-fold serial dilutions of the compounds. Both untreated cells and cells incubated with medium containing solvent dilutions were included in each experiment as controls. The cell viability was assessed by a WST8-based assay according to the manufacturer’s instructions (CCK-8, Cell Counting Kit-8, Dojindo Molecular Technologies, Rockville, MD, USA). After 48 h of incubation, culture medium was removed from each well, the monolayer was washed with PBS, and 100 µL of fresh medium containing 10 µL of CCK-8 solution were added. After 2 h at 37 °C, the OD450nm was read, and data were expressed as the percentage of the cell viability relative to the untreated controls. The CC50 was obtained from the corresponding dose–response curves generated, as previously reported for IC50 values.

[2] = as above; conditions: African green monkey, Vero cells (ATCC CCL-81); Vero cells; mean [95% confidence interval]
Protocol: as §2

S. aureus MRSA 1 = test: dose-response against clinical isolate MRSA 1; conditions: Staphylococcus aureus, mean [95% confidence interval]
Protocol: as §1

IC50 (S. aureus MRSA 4): 11.3 µM
IC50 (S. aureus MRSA 1): 21.4 µM
Compound: O=C1Nc2cc(OC(F)(F)F)ccc2C1(c1c(Cl)nc2sccn12)c1c(Cl)nc2sccn12 [Compound 11, 3,3-bis(6-Chloroimidazo[2,1-b]thiazol-5-yl)-6-(trifluoromethoxy)indolin-2-one]
Cell proliferation, Vero [1]: most toxic
viability at 100 µM ([1]; Chlorocebus sabaeus, Vero, 48 h, read-out: Cell proliferation, Vero): 21.1 ± 3.3%
CC50 at 48 h [2]: 63.3 µM
